Reference: BindingDB's records for doi:10.1016/j.bmcl.2006.10.063 (Astrazeneca R&D Boston, 2007)

Molecular target: T1, Amine oxidase [flavin-containing] A (Homo sapiens, UniProt P21397)
T1 sequence (P21397 whole entry): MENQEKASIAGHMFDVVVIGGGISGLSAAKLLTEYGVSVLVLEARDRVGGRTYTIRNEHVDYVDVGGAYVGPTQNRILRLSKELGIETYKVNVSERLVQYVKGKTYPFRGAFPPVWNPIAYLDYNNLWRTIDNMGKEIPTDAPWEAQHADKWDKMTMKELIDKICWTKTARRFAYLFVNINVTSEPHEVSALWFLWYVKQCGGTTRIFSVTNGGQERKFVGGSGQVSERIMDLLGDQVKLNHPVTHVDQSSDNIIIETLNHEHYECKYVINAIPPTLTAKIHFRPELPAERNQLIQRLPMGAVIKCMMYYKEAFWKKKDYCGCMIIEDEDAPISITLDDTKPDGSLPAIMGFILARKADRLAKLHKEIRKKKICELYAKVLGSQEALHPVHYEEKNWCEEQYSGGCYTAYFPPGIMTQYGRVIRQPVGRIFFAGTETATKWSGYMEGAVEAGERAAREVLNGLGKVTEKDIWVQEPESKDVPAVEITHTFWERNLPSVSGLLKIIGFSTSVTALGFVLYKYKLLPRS
Assay: Inhibition human liver MAOA activity

Structure (SMILES) | Ki
Cc1cn(C[C@H]2CN(c3ccc(-c4cc(C)no4)c(F)c3)C(=O)O2)nn1 [(5R)-3-(3-fluoro-4-(3-methylisoxazol-5-yl)phenyl)-5-((4-methyl-1H-1,2,3-triazol-1-yl)methyl)oxazolidin-2-one] | 22600 nM
Cc1cc(-c2ccc(N3C[C@H](Cn4ccnn4)OC3=O)cc2F)on1 [(5R)-5-((1H-1,2,3-triazol-1-yl)methyl)-3-(3-fluoro-4-(3-methylisoxazol-5-yl)phenyl)oxazolidin-2-one] | 2900 nM
Cc1cc(-c2ccc(N3C[C@H](CNc4ccon4)OC3=O)cc2F)on1 [(5S)-3-(3-fluoro-4-(3-methylisoxazol-5-yl)phenyl)-5-((isoxazol-3-ylamino)methyl)oxazolidin-2-one] | 420 nM
CC(=O)NC[C@H]1CN(c2ccc(-c3cc(C)no3)c(F)c2)C(=O)O1 [N-(((S)-3-(3-fluoro-4-(3-methylisoxazol-5-yl)phenyl)-2-oxooxazolidin-5-yl)methyl)acetamide] | 950 nM
CC(=O)NC[C@H]1CN(c2ccc(N3CCOCC3)c(F)c2)C(=O)O1 [Zyvox] | 20000 nM
